Laboratory results published in patent US7626044B2, “Triptolide derivatives and their uses” (priority 2002, dated 2009).

Columns and labels:
[1] = system: HL-60 (human myeloblastic); test: Tumor cell proliferation, HL-60; type: cell-based; details: read-out: Inhibitory effect on tumor cell proliferation IC50
[2] = system: A-549 (human lung carcinoma); test: Tumor cell proliferation, A-549; type: cell-based; details: read-out: Inhibitory effect on tumor cell proliferation IC50
rat adjuvant arthritis [3] = test: Rat adjuvant arthritis (AA), therapeutic effect; type: in vivo; details: i.p. for 14 days from day 19; especially at 2 mg/Kg/d
Description: Rats were immunized on day 0 by intradermal injection of Complete Freund's adjuvant (CFA), containing 10 mg heat-inactivated BCG in 1 ml paraffin oil, into the left hind paw in 0.1 ml for each rat. Inflammatory polyarthritis was induced in all immunized rats. Swelling in left paw and polyarthritic symptoms were seen from day 1, lasted for 4 days, and then diminished. Swelling in the same paw occurred again from day 8, reached the peak at day 16. The secondary symptoms, including the right hind paw swelling and polyarthritis, were seen from day 12. The polyarthritis severity was graded on a scale of 0-4: 0=no swelling; 1=isolated phalanx joint involvement; 2=involvement of phalanx joint and digits; 3=involvement of the entire region down to the ankle; 4=involvement of entire paw, including ankle.
Right hind paw volume was determined before immunization (basic value, day 0) and repeated every 3 days. Animals were sacrificed on day 15, and thymus and spleen were harvested for thymus and spleen index assessment. Result: The secondary symptoms were established when the right hind paw severely swelled 19 days after adjuvant injection. […] Comparing with AA model rat, LLDT-8 treatment, especially at dose of 2 mg/Kg/d, markedly withdrew the symptoms (FIG. 16 and FIG. 17).

rat adjuvant arthritis [4] = test: Rat adjuvant arthritis (AA), drug prevention; type: in vivo
Description: SD rats were immunized on day 0 by intradermal injection of Complete Freund's adjuvant (CFA), containing 10 mg heat-inactivated BCG in 1 ml paraffin oil, into the left hind paw in 0.1 ml for each rat. Right hind paw volume was determined before immunization (basic value, day 0) and repeated every 4 days from day 12. The polyarthritis severity was graded on a scale of 0-4: 0=no swelling; 1=isolated phalanx joint involvement; 2=involvement of phalanx joint and digits; 3=involvement of the entire region down to the ankle; 4=involvement of entire paw, including ankle. The maximum joint score was 16 for each rat.
Lymphocyte proliferation assay: Splenocytes were prepared aseptically from AA rat at day 28 and resuspended in RPMI-1640 medium supplemented with 10% fetal bovine serum.
5×10^5 cells each well were inoculated into 96-well plate with ConA or LPS in a final volume of 200 μl. Cells were cultured in 5% CO2 incubator at 37° C. for 48 h. Cells were pulsed with 1.9×10^10 Bq/well of [^3H]-thymidine 7-8 h before harvest. After the culture finished, cells were harvested onto glass fiber filters and the incorporated radioactivity was counted by a Beta Scintillator (MicroBeta Trilux, PerkinElmer Life Sciences).

[5] = system: WI-38 (human lung fibroblasts); test: Cell proliferation, WI-38; type: cell-based; details: read-out: Inhibitory effect on tumor cell proliferation IC50
[6] = system: collagen-induced arthritis; test: Collagen-induced arthritis in DBA/1 mice; type: in vivo, mouse
[7] = system: DNFB-induced mouse DTH response; test: DNFB-induced mouse delayed type hypersensitivity response (DTH); type: in vivo
Description: Female Balb/c mice (age of 6-8 wk) were randomly divided into groups and immunized with 20 μl 0.5% DNFB solution in absolute acetone-olive oil (4:1) on each hind foot on day 0 and 1;
7-9 days after the initial immunization, mice were boosted with 10 μl 0.4% DNFB on both sides of the left ear, whereas the right ear was treated with vehicle alone;
Compounds were administered intraperitoneally (i.p.) or orally (p.o.) to the mice 1 h before DNFB booster immunization and 12 h later.
Ear swelling and other indexes were assessed 24-48 h after booster immunization.
Note: Female ICR mice (age of 6-8 wk) were immunized with 0.7% DNFB solution and boosted with 0.6% DNFB solution.

[8] = system: SGC-7901 (human gastric adenocarcinoma cell); test: Tumor cell proliferation, SGC-7901; type: cell-based; details: read-out: Inhibitory effect on tumor cell proliferation IC50
[9] = Table 5, i.p., dosage 1 mg/kg/d for 5 days, control 20

Structure (SMILES): CC(C)[C@]12O[C@H]1[C@@H]1O[C@]13[C@]1(O[C@H]1C[C@@]1(O)C4=C(CC[C@]31C)C(=O)OC4)[C@@H]2O [LLDT-8, (5R)-5-hydroxytriptolide]
- IC50 [1]: 81 nM
- IC50 [2]: 32 nM
- polyarthritic symptoms (therapeutic) (rat adjuvant arthritis [3]): effectively cured the polyarthritic symptoms
- body weight decrease in AA rat (rat adjuvant arthritis [4]; LLDT-8 3, 1 and 0.2 mg/Kg/d, CsA 10 mg/Kg/d): abrogation of body weight decrease
- immune cell infiltration, synovial tissue proliferation, cartilage erosion (rat adjuvant arthritis [4]; compared with AA model group): marked decrease of immune cell infiltration, smaller degree of synovial tissue proliferation, and less cartilage erosion
- right hind paw swelling and polyarthritic symptoms (rat adjuvant arthritis [4]; i.p. day −2 to day 28, LLDT-8 3, 1 and 0.2 mg/Kg/d, CsA 10 mg/Kg/d): diminished the right hind paw swelling and polyarthritic symptoms
- polyarthritis severity (rat adjuvant arthritis [4]; score 0-4 per paw): amelioration of established polyarthritis
- proliferation of B splenocytes induced by LPS (rat adjuvant arthritis [4]; splenocytes from AA rat at day 28): inhibited the proliferation of B splenocytes induced by LPS
- IC50 [5]: 480 nM
- suppressive effect on CIA at lower doses ([6]; 0.2 and 0.04 mg/Kg/d, dose-dependent): Suppressive effect was also observed
- Anti-collagen specific antibody levels ([6]; compared with untreated CIA mice): reduced dose-dependently
- severity and incidence of CIA ([6]; i.p. 1 mg/Kg/d, compared with untreated CIA mice): effectively reduced severity and incidence of CIA
- Body weight after i.p. [7, 9]: 21/21 g
- Body weight before i.p. [7, 9]: 21/21 g
- Right ear ([7]; Table 5, i.p., dosage 1 mg/kg/d for 5 days, control 31.2): 35.5 mg
- Ear swelling ([7]; Table 5, i.p., dosage 1 mg/kg/d for 5 days, control 32.6): 21.4 mg
- Left ear ([7]; Table 5, i.p., dosage 1 mg/kg/d for 5 days, control 63.8): 56.9 mg
- Spleen ([7]; Table 5, i.p., dosage 1 mg/kg/d for 5 days, control 142.4): 140.3 mg
- Right ear ([7]; Table 6, i.p. once a day for 2 days, ICR mice, dosage 0.04 mg/kg, control 30.0): 29.4 mg
- Ear swelling ([7]; Table 6, i.p. once a day for 2 days, ICR mice, dosage 0.04 mg/kg, control 31.1): 26.1 mg
- Left ear ([7]; Table 6, i.p. once a day for 2 days, ICR mice, dosage 0.04 mg/kg, control 61.1): 55.5 mg
- Right ear ([7]; Table 6, i.p. once a day for 2 days, ICR mice, dosage 0.2 mg/kg, control 30.0): 37.4 mg
- Ear swelling ([7]; Table 6, i.p. once a day for 2 days, ICR mice, dosage 0.2 mg/kg, control 31.1): 17.9 mg
- Left ear ([7]; Table 6, i.p. once a day for 2 days, ICR mice, dosage 0.2 mg/kg, control 61.1): 55.3 mg
- Right ear ([7]; Table 6, i.p. once a day for 2 days, ICR mice, dosage 1 mg/kg, control 30.0): 33.0 mg
- Ear swelling ([7]; Table 6, i.p. once a day for 2 days, ICR mice, dosage 1 mg/kg, control 31.1): 23.4 mg
- Left ear ([7]; Table 6, i.p. once a day for 2 days, ICR mice, dosage 1 mg/kg, control 61.1): 56.4 mg
- Ear swelling X ± SD ([7]; Table 7, i.p. at low dosages, Balb/c mice, dosage 2 (mg/kg), control 23.3 ± 4.3): 16.8 ± 5.4 mg
- Right ear ([7]; Table 7, i.p. at low dosages, Balb/c mice, dosage 2 (mg/kg), control 26.3): 27.5 mg
- Left ear ([7]; Table 7, i.p. at low dosages, Balb/c mice, dosage 2 (mg/kg), control 49.6): 44.3 mg
- Ear swelling X ± SD ([7]; Table 7, i.p. at low dosages, Balb/c mice, dosage 8 (mg/kg), control 23.3 ± 4.3): 16.6 ± 4.1 mg
- Right ear ([7]; Table 7, i.p. at low dosages, Balb/c mice, dosage 8 (mg/kg), control 26.3): 29.7 mg
- Left ear ([7]; Table 7, i.p. at low dosages, Balb/c mice, dosage 8 (mg/kg), control 49.6): 46.3 mg
- Ear swelling X ± SD ([7]; Table 7, i.p. at low dosages, Balb/c mice, dosage 40 (mg/kg), control 23.3 ± 4.3): 16.9 ± 2.7 mg
- Right ear ([7]; Table 7, i.p. at low dosages, Balb/c mice, dosage 40 (mg/kg), control 26.3): 25.7 mg
- Left ear ([7]; Table 7, i.p. at low dosages, Balb/c mice, dosage 40 (mg/kg), control 49.6): 42.6 mg
- Ear swelling X ± SD ([7]; Table 7, i.p. at low dosages, Balb/c mice, dosage 200 (mg/kg), control 23.3 ± 4.3): 17.1 ± 5.1 mg
- Right ear ([7]; Table 7, i.p. at low dosages, Balb/c mice, dosage 200 (mg/kg), control 26.3): 27.2 mg
- Left ear ([7]; Table 7, i.p. at low dosages, Balb/c mice, dosage 200 (mg/kg), control 49.6): 44.3 mg
- Body weight after i.p. ([7]; Table 8, i.p., Balb/c mice, dosage 0.4 (mg/kg), control 21.9): 22.6 g
- Body weight before i.p. ([7]; Table 8, i.p., Balb/c mice, dosage 0.4 (mg/kg), control 22.4): 22.3 g
- Ear swelling X ± SD ([7]; Table 8, i.p., Balb/c mice, dosage 0.4 (mg/kg), control 22.7 ± 2.1): 17.7 ± 4.7 mg
- Right ear ([7]; Table 8, i.p., Balb/c mice, dosage 0.4 (mg/kg), control 26.4): 29.2 mg
- Left ear ([7]; Table 8, i.p., Balb/c mice, dosage 0.4 (mg/kg), control 49.1): 47.0 mg
- Spleen ([7]; Table 8, i.p., Balb/c mice, dosage 0.4 (mg/kg), control 154.0): 164.2 mg
- Body weight after i.p. ([7]; Table 8, i.p., Balb/c mice, dosage 4 (mg/kg), control 21.9): 21.8 g
- Body weight before i.p. ([7]; Table 8, i.p., Balb/c mice, dosage 4 (mg/kg), control 22.4): 21.4 g
- Ear swelling X ± SD ([7]; Table 8, i.p., Balb/c mice, dosage 4 (mg/kg), control 22.7 ± 2.1): 15.3 ± 4.7 mg
- Right ear ([7]; Table 8, i.p., Balb/c mice, dosage 4 (mg/kg), control 26.4): 26.8 mg
- Left ear ([7]; Table 8, i.p., Balb/c mice, dosage 4 (mg/kg), control 49.1): 42.1 mg
- Spleen ([7]; Table 8, i.p., Balb/c mice, dosage 4 (mg/kg), control 154.0): 163.3 mg
- Body weight after i.p. ([7]; Table 8, i.p., Balb/c mice, dosage 40 (mg/kg), control 21.9): 21.4 g
- Body weight before i.p. ([7]; Table 8, i.p., Balb/c mice, dosage 40 (mg/kg), control 22.4): 21.6 g
- Ear swelling X ± SD ([7]; Table 8, i.p., Balb/c mice, dosage 40 (mg/kg), control 22.7 ± 2.1): 17.1 ± 4.9 mg
- Right ear ([7]; Table 8, i.p., Balb/c mice, dosage 40 (mg/kg), control 26.4): 29.6 mg
- Left ear ([7]; Table 8, i.p., Balb/c mice, dosage 40 (mg/kg), control 49.1): 46.7 mg
- Spleen ([7]; Table 8, i.p., Balb/c mice, dosage 40 (mg/kg), control 154.0): 168.5 mg
- Body weight after (i.p.) ([7]; Table 9, p.o., Balb/c mice, dosage 1 mg/kg/d for 2 days, control 19): 21/21 g
- Body weight before (i.p.) ([7]; Table 9, p.o., Balb/c mice, dosage 1 mg/kg/d for 2 days, control 20): 21/21 g
- Ear swelling ([7]; Table 9, p.o., Balb/c mice, dosage 1 mg/kg/d for 2 days, control 23.4): 13.1 mg
- Right ear ([7]; Table 9, p.o., Balb/c mice, dosage 1 mg/kg/d for 2 days, control 25.9): 27.3 mg
- Left ear ([7]; Table 9, p.o., Balb/c mice, dosage 1 mg/kg/d for 2 days, control 49.3): 40.4 mg
- Spleen ([7]; Table 9, p.o., Balb/c mice, dosage 1 mg/kg/d for 2 days, control 125.8): 124.4 mg
- Right ear ([7]; Table 10, p.o., ICR mice, dosage 0.04 mg/kg, control 33.7): 35.2 mg
- Ear swelling ([7]; Table 10, p.o., ICR mice, dosage 0.04 mg/kg, control 41.5): 33.8 mg
- Left ear ([7]; Table 10, p.o., ICR mice, dosage 0.04 mg/kg, control 75.2): 69.0 mg
- Right ear ([7]; Table 10, p.o., ICR mice, dosage 0.2 mg/kg, control 33.7): 38.2 mg
- Ear swelling ([7]; Table 10, p.o., ICR mice, dosage 0.2 mg/kg, control 41.5): 30.0 mg
- Left ear ([7]; Table 10, p.o., ICR mice, dosage 0.2 mg/kg, control 75.2): 68.2 mg
- Right ear ([7]; Table 10, p.o., ICR mice, dosage 1 mg/kg, control 33.7): 39.4 mg
- Ear swelling ([7]; Table 10, p.o., ICR mice, dosage 1 mg/kg, control 41.5): 24.1 mg
- Left ear ([7]; Table 10, p.o., ICR mice, dosage 1 mg/kg, control 75.2): 63.5 mg
- IC50 [8]: 43 nM
